# Laboratory results taken from US20250049778A1, “CRYSTALLINE FORM OF GLP-1 RECEPTOR AGONIST AND PREPARATION METHOD THEREFOR” (JIANGSU HENGRUI PHARMACEUTICALS CO., LTD., priority 2021, published 2025).
# Key:
# Assay type in all cases: physicochemical
# [1] = Hygroscopicity of crystal forms by dynamic vapor sorption (DVS) at 25° C.; conditions: for Crystal form after DVS: two cycles
# Method: Surface Measurement Systems advantage 2 is used for detection at 25° C. The humidity is 50%-95%-0%-95%-50% RH. The step is 10%. The criterion is that the mass change dM/dT for each step is less than 0.002%. TMAX is 360 min. Two cycles are carried out.
# Surface Measurement Systems intrinsic DVS was used at 25° C. The observed humidity ranged from 0% to 95%. The step was 10%. The criterion was that the mass change dM/dT for each step was less than 0.002%. TMAX was 360 min. Two cycles were carried out.
# [2] = Long-term/accelerated stability, sealed with aluminum foil bag
# Description: The results were as shown below.
# [3] = Stability of crystal forms placed open under illumination, high temperature and high humidity, 30 days; conditions: for Physical and chemical stability (summary): illumination, 40° C. and 60° C., 75% RH and 92.5% RH
# Description: The sampling and investigation period was 30 days.
# [4] = Illumination (4500 Lux), 5 days
# [5] = Illumination (4500 Lux), 10 days
# [6] = Illumination (4500 Lux), 30 days
Hygroscopic weight gain 0.0% RH to 80.0% RH [1],Crystal form after DVS [1],"Purity % ([2]; 25° C./60% RH, 1 month)","Purity % ([2]; 25° C./60% RH, 3 months)","Purity % ([2]; 40° C./75% RH, 1 month)","Purity % ([2]; 40° C./75% RH, 3 months)",Purity % ([2]; Initial condition),"Purity % ([3]; 40° C., 5 days)","Purity % ([3]; 40° C., 10 days)","Purity % ([3]; 40° C., 30 days)","Purity % ([3]; 60° C., 5 days)","Purity % ([3]; 60° C., 10 days)","Purity % ([3]; 60° C., 30 days)","Purity % ([3]; 75% RH, 5 days)","Purity % ([3]; 75% RH, 10 days)","Purity % ([3]; 75% RH, 30 days)","Purity % ([3]; 92.5% RH, 5 days)","Purity % ([3]; 92.5% RH, 10 days)","Purity % ([3]; 92.5% RH, 30 days)","Purity % [3, 4]",Compound,also measured
0.65%,Unchanged,99.5%,99.5%,99.5%,99.5%,99.5%,98.8%,98.8%,98.8%,98.8%,98.7%,98.8%,98.7%,98.7%,98.7%,98.8%,98.7%,98.8%,98.7%,"O=C(O)c1ccc2nc(CN3CCC(c4cccc5c4O[C@@H](c4ccc(Cl)cc4F)CO5)CC3)n(C[C@@H]3CCO3)c2c1 [Crystal form A of Compound A, 2-((4-((S)-3-(4-chloro-2-fluorophenyl)-2,3-dihydrobenzo[b][1,4]dioxan-5-yl)piperidin-1-yl)methyl)-1-(((S)-oxetan-2-yl)methyl)-1H-benzo[d]imidazole-6-carboxylic acid]","Purity % ([2]; 25° C./60% RH, 6 months): 99.5%; Crystal form ([2]; 25° C./60% RH, up to 6 months): Unchanged; Purity % ([2]; 40° C./75% RH, 6 months): 99.5%; Crystal form ([2]; 40° C./75% RH, up to 6 months): Unchanged; Physical and chemical stability (summary) ([2]; placed for 6 months under long-term accelerated conditions): good physical and chemical stability; Purity % [3, 5]: 98.7%; Purity % [3, 6]: 98.8%; Purity % ([3]; Initial condition, 0 days): 98.7%; Physical and chemical stability (summary) ([3]; 30 days): good physical and chemical stability"
1.95%,Unchanged,98.6%,98.5%,98.6%,98.3%,98.5%,98.4%,98.5%,98.5%,98.5%,98.6%,98.6%,98.5%,98.6%,98.5%,98.6%,98.6%,98.5%,98.5%,"O=C(O)c1ccc2nc(CN3CCC(c4cccc5c4O[C@@H](c4ccc(Cl)cc4F)CO5)CC3)n(C[C@@H]3CCO3)c2c1 [Crystal form D of Compound A, 2-((4-((S)-3-(4-chloro-2-fluorophenyl)-2,3-dihydrobenzo[b][1,4]dioxan-5-yl)piperidin-1-yl)methyl)-1-(((S)-oxetan-2-yl)methyl)-1H-benzo[d]imidazole-6-carboxylic acid]","Purity % ([2]; 25° C./60% RH, 2 months): 98.6%; Crystal form ([2]; 25° C./60% RH, up to 3 months): Unchanged; Purity % ([2]; 40° C./75% RH, 2 months): 98.4%; Crystal form ([2]; 40° C./75% RH, up to 3 months): Unchanged; Physical and chemical stability (summary) ([2]; placed for 3 months under long-term accelerated conditions): good physical and chemical stability; Purity % [3, 5]: 98.6%; Purity % [3, 6]: 98.6%; Purity % ([3]; Initial condition, 0 days): 98.5%; Physical and chemical stability (summary) ([3]; 30 days): good physical and chemical stability"
